Legend:
Type in all cases: cell-based
SK-MEL-2 = assay: cells; conditions: Melanoma SK-MEL-2
T-47D = assay: cells
NCI-H23 = assay: cells
OVCAR-4 = assay: cells
MOLT-4 = assay: cells
SNB-19 = assay: cells
UO-31 = assay: cells
COLO 205 = assay: cells
786-0 = assay: cells
SK-MEL-5 = assay: cells
K-562 = assay: cells
NCI-H322M = assay: cells
SK-OV-3 = assay: cells
PC-3 = assay: cells
M14 = assay: cells
[1] = test system: 55 to 60 cancer cell lines; conditions: 10 μM
ACHN = assay: cells
SW-620 = assay: cells
RXF 393 = assay: cells
NCI-H522 = assay: cells
LOX IMVI = assay: cells; conditions: Melanoma LOX IMV1
SNB-75 = assay: cells
NCI-H460 = assay: cells
SN12C = assay: cells
SR = assay: cells
RPMI-8226 = assay: cells
TK-10 = assay: cells; conditions: TK-10 (Renal Cancer), 10 μM, 48 hours
OVCAR-3 = assay: cells
MDA-MB-468 = assay: cells
OVCAR-8 = assay: cells
OVCAR-5 = assay: cells
[2] = Homo sapiens, Non-Small Cell Lung Cancer NCI-H23
[3] = Homo sapiens, CNS Cancer SNB-19
[4] = Homo sapiens, Colon Cancer COLO 205
[5] = Homo sapiens, K562, Leukemia K-562
[6] = Homo sapiens, Colon Cancer SW-620

With `O=C1c2cc(Cl)ccc2-c2c(N3CCNCC3)nc3ccccc3c21` [SJ-10, 9-Chloro-6-(piperazin-1-yl)-11H-indeno[1,2-c]quinolin-11-one] the GI50 (SK-MEL-2; Homo sapiens) was 7.36 µM, the CC50 (SK-MEL-2; Homo sapiens, read-out: LC50 (the source's name)) was > 100 µM and the TGI (SK-MEL-2) was >100 µM. The TGI (T-47D; Breast Cancer T-47D) was >100 µM, the GI50 (T-47D; Homo sapiens, T47D, Breast Cancer T-47D) was 8.44 µM and the CC50 (T-47D; Homo sapiens, T47D, Breast Cancer T-47D, read-out: LC50 (the source's name)) was > 100 µM. The growth percentage (T-47D; T-47D (Breast Cancer), 10 μM, 48 hours) was -31.54%, the GI50 (NCI-H23; [2]) was 6.65 µM and the LC50 (NCI-H23; [2]) was > 100 µM. The growth percentage (NCI-H23; NCI-H23 (Non-Small Cell Lung Cancer), 10 μM, 48 hours) was 49.19%, the TGI (NCI-H23; Non-Small Cell Lung Cancer NCI-H23) was >100 µM and the GI50 (OVCAR-4; Homo sapiens, Ovarian Cancer OVCAR-4) was 6.39 µM. The CC50 (OVCAR-4; Homo sapiens, Ovarian Cancer OVCAR-4, read-out: LC50 (the source's name)) was > 100 µM, the growth percentage (OVCAR-4; OVCAR-4 (Ovarian Cancer), 10 μM, 48 hours) was 35.59% and the TGI (OVCAR-4; Ovarian Cancer OVCAR-4) was >100 µM. The GI50 (MOLT-4; Homo sapiens, Leukemia MOLT-4) was 4.41 µM, the LC50 (concentration killing 50% of cells) (MOLT-4; Homo sapiens, Leukemia MOLT-4) was > 100 µM and the TGI (MOLT-4; Leukemia MOLT-4) was >100 µM. The growth percentage (MOLT-4; MOLT-4 (Leukemia), 10 μM, 48 hours) was -43.22%, the TGI (SNB-19; CNS Cancer SNB-19) was >100 µM and the GI50 (SNB-19; [3]) was 8.27 µM. The LC50 (SNB-19; [3]) was > 100 µM, the growth percentage (SNB-19; SNB-19 (CNS Cancer), 10 μM, 48 hours) was 67.25% and the GI50 (UO-31; Homo sapiens, Renal Cancer UO-31) was 2.83 µM. For the same compound, the CC50 (UO-31; Homo sapiens, Renal Cancer UO-31, read-out: LC50 (the source's name)) was > 100 µM, the TGI (UO-31; Renal Cancer UO-31) was >100 µM and the growth percentage (UO-31; UO-31 (Renal Cancer), 10 μM, 48 hours) was -40.61%. For the same compound, the growth percentage (COLO 205; COLO 205 (Colon Cancer), 10 μM, 48 hours) was -81.49%, the TGI (COLO 205; Colon Cancer COLO 205) was >100 µM and the GI50 (COLO 205; [4]) was 12.2 µM. The LC50 (50% lethal concentration) (COLO 205; [4]) was > 100 µM, the growth percentage (786-0; 786-0 (Renal Cancer), 10 μM, 48 hours) was 25.31% and the GI50 (786-0; Homo sapiens, 786-0, Renal Cancer 786-O) was 23.5 µM. The CC50 (786-0; Homo sapiens, 786-0, Renal Cancer 786-O, read-out: LC50 (the source's name)) was > 100 µM, the TGI (786-0; Renal Cancer 786-O) was >100 µM and the GI50 (SK-MEL-5; Homo sapiens, Melanoma SK-MEL-5) was 4.1 µM. For the same compound, the CC50 (SK-MEL-5; Homo sapiens, Melanoma SK-MEL-5, read-out: LC50 (the source's name)) was > 100 µM, the TGI (SK-MEL-5; Melanoma SK-MEL-5) was >100 µM and the growth percentage (SK-MEL-5; SK-MEL-5 (Melanoma), 10 μM, 48 hours) was 59.18%. The GI50 (K-562; [5]) was 7.8 µM, the LC50 (lethal concentration, 50% cell kill) (K-562; [5]) was > 100 µM and the growth percentage (K-562; K-562 (Leukemia), 10 μM, 48 hours) was -65.71%. The TGI (K-562; Leukemia K-562) was >100 µM, the GI50 (NCI-H322M; Homo sapiens, Non-Small Cell Lung Cancer NCI-H322M) was 5.62 µM and the CC50 (NCI-H322M; Homo sapiens, Non-Small Cell Lung Cancer NCI-H322M, read-out: LC50 (the source's name)) was > 100 µM. The growth percentage (NCI-H322M; NCI-H322M (Non-Small Cell Lung Cancer), 10 μM, 48 hours) was 35.89%, the TGI (NCI-H322M; Non-Small Cell Lung Cancer NCI-H322M) was >100 µM and the GI50 (SK-OV-3; Homo sapiens, Ovarian Cancer SK-OV-3) was 4.35 µM. The CC50 (SK-OV-3; Homo sapiens, Ovarian Cancer SK-OV-3, read-out: LC50 (the source's name)) was > 100 µM, the TGI (SK-OV-3; Ovarian Cancer SK-OV-3) was >100 µM and the growth percentage (SK-OV-3; SK-OV-3 (Ovarian Cancer), 10 μM, 48 hours) was 57.81%. The GI50 (PC-3; Homo sapiens, Prostate Cancer PC-3) was 5.93 µM, the CC50 (PC-3; Homo sapiens, Prostate Cancer PC-3, read-out: LC50 (the source's name)) was > 100 µM and the growth percentage (PC-3; PC-3 (Prostate Cancer), 10 μM, 48 hours) was -58.51%. For the same compound, the TGI (PC-3; Prostate Cancer PC-3) was >100 µM, the GI50 (M14; Homo sapiens, Melanoma M14) was 7.49 µM and the CC50 (M14; Homo sapiens, Melanoma M14, read-out: LC50 (the source's name)) was > 100 µM. The growth percentage (M14; M14 (Melanoma), 10 μM, 48 hours) was -56.24%, the TGI (M14; Melanoma M14) was >100 µM and the “inhibition effect in different cancer cell lines (summary of the NCI data, in words)” value ([1]; 48 hours) was “preferable inhibition effects in leukemia and colon cancer cells”. The “Mean (mean growth percentage of the tested cancer cell lines)” value ([1]; 48 hours, all tested cell lines) was −14.37%, the “cytotoxicity in the first stage (in words)” value ([1]; basis for selection for the five-dose test) was “potential cytotoxicity” and the growth percentage (ACHN; ACHN (Renal Cancer), 10 μM, 48 hours) was -83.29%. For the same compound, the GI50 (ACHN; Homo sapiens, Renal Cancer ACHN) was 3.14 µM, the CC50 (ACHN; Homo sapiens, Renal Cancer ACHN, read-out: LC50 (the source's name)) was > 100 µM and the TGI (ACHN; Renal Cancer ACHN) was >100 µM. For the same compound, the TGI (SW-620; Colon Cancer SW-620) was >100 µM, the GI50 (SW-620; [6]) was 5.14 µM and the LC50 (concentration killing 50% of cells) (SW-620; [6]) was > 100 µM. For the same compound, the growth percentage (SW-620; SW-620 (Colon Cancer), 10 μM, 48 hours) was -73.67%, the GI50 (RXF 393; Homo sapiens, Renal Cancer RXF 393) was 4.55 µM and the CC50 (RXF 393; Homo sapiens, Renal Cancer RXF 393, read-out: LC50 (the source's name)) was > 100 µM. For the same compound, the growth percentage (RXF 393; RXF 393 (Renal Cancer), 10 μM, 48 hours) was 20.51%, the TGI (RXF 393; Renal Cancer RXF 393) was >100 µM and the GI50 (NCI-H522; Homo sapiens, Non-Small Cell Lung Cancer NCI-H522) was 3.98 µM. The CC50 (NCI-H522; Homo sapiens, Non-Small Cell Lung Cancer NCI-H522, read-out: LC50 (the source's name)) was > 100 µM, the growth percentage (NCI-H522; NCI-H522 (Non-Small Cell Lung Cancer), 10 μM, 48 hours) was 18.08% and the TGI (NCI-H522; Non-Small Cell Lung Cancer NCI-H522) was >100 µM. The GI50 (LOX IMVI; Homo sapiens, LOX IMVI) was 4.74 µM, the CC50 (LOX IMVI; Homo sapiens, LOX IMVI, read-out: LC50 (the source's name)) was > 100 µM and the TGI (LOX IMVI) was >100 µM. For the same compound, the TGI (SNB-75; CNS Cancer SNB-75) was >100 µM, the GI50 (SNB-75; Homo sapiens, CNS Cancer SNB-75) was 4.53 µM and the CC50 (SNB-75; Homo sapiens, CNS Cancer SNB-75, read-out: LC50 (the source's name)) was > 100 µM. For the same compound, the growth percentage (SNB-75; SNB-75 (CNS Cancer), 10 μM, 48 hours) was 22.34%, the GI50 (NCI-H460; Homo sapiens, Non-Small Cell Lung Cancer NCI-460) was 4.15 µM and the CC50 (NCI-H460; Homo sapiens, Non-Small Cell Lung Cancer NCI-460, read-out: LC50 (the source's name)) was > 100 µM. The growth percentage (NCI-H460; NCI-H460 (Non-Small Cell Lung Cancer), 10 μM, 48 hours) was -66.36%, the TGI (NCI-H460; Non-Small Cell Lung Cancer NCI-460) was >100 µM and the GI50 (SN12C; Homo sapiens, Renal Cancer SN12C) was 5.42 µM. For the same compound, the CC50 (SN12C; Homo sapiens, Renal Cancer SN12C, read-out: LC50 (the source's name)) was > 100 µM, the TGI (SN12C; Renal Cancer SN12C) was >100 µM and the growth percentage (SN12C; SN12C (Renal Cancer), 10 μM, 48 hours) was 15.89%. For the same compound, the GI50 (SR; Homo sapiens, Leukemia SR) was 3.09 µM, the LC50 (50% lethal concentration) (SR; Homo sapiens, Leukemia SR) was > 100 µM and the TGI (SR; Leukemia SR) was >100 µM. The growth percentage (SR; SR (Leukemia), 10 μM, 48 hours) was -55.19%, the GI50 (RPMI-8226; Homo sapiens, Leukemia RPMI-8226) was 7.48 µM and the CC50 (RPMI-8226; Homo sapiens, Leukemia RPMI-8226, read-out: LC50 (the source's name)) was > 100 µM. The TGI (RPMI-8226; Leukemia RPMI-8226) was >100 µM, the growth percentage (RPMI-8226; RPMI-8226 (Leukemia), 10 μM, 48 hours) was -43.57% and the growth percentage (TK-10) was 47.07%. The GI50 (OVCAR-3; Homo sapiens, Ovarian Cancer OVCAR-3) was 12.8 µM, the CC50 (OVCAR-3; Homo sapiens, Ovarian Cancer OVCAR-3, read-out: LC50 (the source's name)) was > 100 µM and the growth percentage (OVCAR-3; OVCAR-3 (Ovarian Cancer), 10 μM, 48 hours) was 22.86%. The TGI (OVCAR-3; Ovarian Cancer OVCAR-3) was >100 µM, the TGI (MDA-MB-468; Breast Cancer MDA-MB-468) was >100 µM and the GI50 (MDA-MB-468; Homo sapiens, Breast Cancer MDA-MB-468) was 4.42 µM. For the same compound, the CC50 (MDA-MB-468; Homo sapiens, Breast Cancer MDA-MB-468, read-out: LC50 (the source's name)) was > 100 µM, the growth percentage (MDA-MB-468; MDA-MB-468 (Breast Cancer), 10 μM, 48 hours) was -35.66% and the GI50 (OVCAR-8; Homo sapiens, Ovarian Cancer OVCAR-8) was 8.66 µM. For the same compound, the CC50 (OVCAR-8; Homo sapiens, Ovarian Cancer OVCAR-8, read-out: LC50 (the source's name)) was > 100 µM, the growth percentage (OVCAR-8; OVCAR-8 (Ovarian Cancer), 10 μM, 48 hours) was -46.09% and the TGI (OVCAR-8; Ovarian Cancer OVCAR-8) was >100 µM. For the same compound, the GI50 (OVCAR-5; Homo sapiens, Ovarian Cancer OVCAR-5) was 34.5 µM, the CC50 (OVCAR-5; Homo sapiens, Ovarian Cancer OVCAR-5, read-out: LC50 (the source's name)) was > 100 µM and the growth percentage (OVCAR-5; OVCAR-5 (Ovarian Cancer), 10 μM, 48 hours) was 39.14%. For the same compound, the TGI (OVCAR-5; Ovarian Cancer OVCAR-5) was >100 µM.

From patent publication US20150197492A1, “NOVEL INDENO[1,2-c]QUINOLIN-11-ONE DERIVATIVES, PREPARATION METHOD AND APPLICATION THEREOF” (National Defense Medical Center, priority 2014, published 2015)
